“Also recorded” adds a separate entry of the source. Like-named read-outs stand apart in the source and are kept apart here.
Legend:
[1] = tested on: AKT phosphorylation in MGH051 cells; assay: Western blotting, MGH051 cells, ceritinib 4 hours or 8 days, inhibitors added for last day; assay type: cell-based; details: MGH051 (FIG. 6); for rebound in AKT phosphorylation: added for the last day of long-term (8 days) ceritinib treatment
Procedure: (§1) FIG. 6. […] MGH051 cells were treated with ceritinib (LDK378) for 4 hours or 8 days.
(§2) The activated states of ALK and HER3 of multiple NSCLC cell lines that harbor EML4-ALK translocations were assessed in both short-term and long-term cultures.

[2] = tested on: ERK phosphorylation in MGH051 cells; assay: Western blotting, MGH051 cells, inhibitors added for last day of long-term ceritinib treatment; assay type: cell-based; details: added for the last day of long-term (8 days) ceritinib treatment, MGH051 (FIG. 6)
Procedure: as §1, §2

MGH049 cells [3] = assay: Cell proliferation (CellTiter-Glo), EGFR inhibitors with or without ceritinib; assay type: cell-based
Procedure: (§3) These cell lines harbor EML4-ALK rearrangements.
(§4) Three replicate plates were set up for each cell line and drug compound, with or without ceritinib. A representative dose response curve was then calculated by taking the mean across the 3 replicates with and without ceritinib. Proliferation inhibition values were normalized to the measured inhibition value at zero dose of the compound, with and without ceritinib.
(§5) Experiments performed with cell lines MGH049 and MGH051 are depicted on FIG. 3 and FIG. 4, respectively.

MGH051 cells [4] = tested on: MGH051 cells
Procedure: as §3, §4, §5

[5] = tested on: HER3 activation in MGH051 cells; assay: Western blotting, MGH051 cells, inhibitors added for last day of long-term ceritinib treatment; assay type: cell-based; details: added for the last day of long-term (8 days) ceritinib treatment, MGH051 (FIG. 6)
Procedure: FIG. 6. Addition of HER3 and EGFR inhibitors represses the rebound in AKT phosphorylation. MGH051 cells were treated with ceritinib (LDK378) for 4 hours or 8 days.
The activated states of ALK and HER3 of multiple NSCLC cell lines that harbor EML4-ALK translocations were assessed in both short-term and long-term cultures. […] In addition, the levels of pHER3 correlated with the duration of the treatments (FIG. 5). Next, we assessed the activation of the downstream signaling of HER3 and the repression of ceritinib-induced HER3 activation using various inhibitors.

H2228 tumors = assay: H2228 NSCLC xenograft efficacy; assay type: in vivo, female SCID-beige mice
Procedure: In this experiment female SCID Beige mice bearing H2228 tumors were used. At start, the mice were 8 to 12 weeks of age. First, the mice were inoculated with 4 mm^3 H2228 tumor fragments by subcutaneous injection in flank. The fragments were dipped in Matrigel before implanting. When tumors reached an average size of 100-150 mm^3 the treatment according to the scheme below commenced. The body weight was measured daily for the first 5 days and then biweekly until end. The tumor was measured biweekly by caliper until end. […] Dosing with the compounds ended on study day 32. After this the tumor size was monitored during an observation phase for re-growth.
The average tumor volume data in the graphs is not complete through the end of the study for all groups. Once a group lost more than 50% of the animals due to death or ethical sacrifice, the average tumor volume for the remaining animals in these groups was no longer graphed.

NCI-H2228 cells = assay: Secretome screening, CellTiter-Glo cell proliferation in presence of ceritinib; assay type: cell-based; details: 0.5 μM ceritinib, conditioned supernatant, 96 hours
Procedure: NCI-H2228 was obtained from ATCC. The cell lines harbored EML4-ALK rearrangements. NCI-H2228 cells were cultured in RPMI-1640 (ATCC Catalog #30-2001) supplemented with 15% FBS.
Secretome screening was performed as described previously (Lito P, Pratilas C A, et al. Cancer Cell 2012; 22: 668-82). In brief, 317 cDNA constructs that represent 220 unique secreted proteins were reverse transfected into HEK293T cells individually and incubated 4 days to allow accumulation of secreted proteins in supernatant. The supernatant was transferred to the assay cells, namely NCI-H2228 cells, followed by addition of ceritinib to a final concentration of 0.5 μM. Cell proliferation was measured using CellTiter-Glo after 96 hours. Cells treated with DMSO in the absence of conditioned media and with ceritinib alone were used as controls.
The Cell Titer Glo assay was done with H2228 cell line. The cell line stems from adenocarcinoma; non-small cell lung cancer. Cell Titer Glo assay is a Cell Viability Assay that determined the number of viable cells in culture based on quantitation of the ATP present, which signaled the presence of metabolically active cells.
“Ceritinib no ligand” represents cells that were treated with ceritinib only (absence of any ligand) and represents the impact of ceritinib on cell viability. […]

MGH049 cells [6] = assay: Cell proliferation assay (CellTiter-Glo), ceritinib dose response; assay type: cell-based; details: 144 h; 0.3 μM ceritinib, 6 days, MGH049, relative to median DMSO signal; read-out: percent inhibition of cell proliferation
Procedure: (§6) MGH049 and MGH051 were obtained from Massachusetts General Hospital (Friboulet L, Li N, et al. Cancer Discovery 2014; 4: 662-73). These cell lines harbor EML4-ALK rearrangements. MGH049 and MGH051 were cultured in DMEM (ATCC Catalog #30-2002) supplemented with 10% FBS.
(§7) To determine the dose-response relationship between the dose of ceritinib and the magnitude of its effect on cell proliferation, 1K MGH049 and 4K MGH051 cells were plated in each well of 384 well-plates, and grown for 24 hours prior to treatment. Cells were then treated with DMSO or ceritinib at concentrations ranging from 4 nM to 1 μM (3-fold dilutions). After 6 days, cell proliferation was measured using the CellTiter-Glo luminescent cell viability assay. Percent inhibition was calculated relative to median DMSO signal.

MGH051 cells [7] = assay: as above; assay type: cell-based; details: 144 h; 0.3 μM ceritinib, 6 days, MGH051, relative to median DMSO signal; read-out: percent inhibition of cell proliferation
Procedure: as §6, §7

[8] = tested on: HER3 phosphorylation in ALK positive NSCLC cell lines; assay: Western blotting of whole cell lysates after short-term and long-term ceritinib treatment; assay type: cell-based; details: long-term treatment, 4 ALK positive cell lines (FIG. 5)
Procedure: FIG. 5. […] Cells were harvested after short-term and long-term ceritinib (LDK378) treatment, and whole cell lysates were analyzed by Western blotting.
as §2

MGH049 cells [9] = assay: Cell colony formation assay, crystal violet; assay type: cell-based; details: MGH049, 7 days; for cell growth inhibition as single agent (colony formation): ceritinib 0.5 μM or erlotinib 1 μM (FIG. 7); for anti-proliferative effect in combination with ceritinib versus ceritinib alone (colony formation): ceritinib 0.5 μM + erlotinib 1 μM (FIG. 7)
Excerpt: (§8) FIGS. 7A and 7B. […] For each cell line, all dishes were fixed, stained and photographed at the same time.

MGH051 cells [10] = assay: Cell colony formation assay, crystal violet; assay type: cell-based; details: MGH051, 7 days; for cell growth inhibition as single agent (colony formation): ceritinib 0.5 μM or erlotinib 1 μM (FIG. 7); for anti-proliferative effect in combination with ceritinib versus ceritinib alone (colony formation): ceritinib 0.5 μM + erlotinib 1 μM (FIG. 7)
Excerpt: as §8

Compound: CN(C)C/C=C/C(=O)Nc1cc2c(Nc3ccc(F)c(Cl)c3)ncnc2cc1O[C@H]1CCOC1 [afatinib, (S,E)-N-(4-((3-chloro-4-fluorophenyl)amino)-7-((tetrahydrofuran-3-yl)oxy)quinazolin-6-yl)-4-(dimethylamino)but-2-enamide]
- rebound in AKT phosphorylation [1]: able to suppress the rebound in AKT phosphorylation
- ERK phosphorylation [2]: enhanced inhibition of ERK phosphorylation

Compound: CS(=O)(=O)CCNCc1ccc(-c2ccc3ncnc(Nc4ccc(OCc5cccc(F)c5)c(Cl)c4)c3c2)o1 [lapatinib, N-[3-chloro-4-(3-fluorobenzyloxy)phenyl]-6-{5-[4-(methylsulfonyl)-2-azabutyl]-2-furyl} quinazolin-4-amine]
- cell growth, EGFR inhibitor in combination with ceritinib (MGH049 cells [3]): synergistically reduced cell growth
- cell growth, EGFR inhibitor in combination with ceritinib (MGH051 cells [4]): synergistically reduced cell growth

Compound: Antibody A: anti-HER3 antibody comprising the sequences of MOR10703 as defined in Table 1
- activation of HER3 [5]: markedly suppressed
- rebound in AKT phosphorylation [1]: markedly suppressed
- efficacy (tumor volume) of LDK378 in combination with the antibody (H2228 tumors; LDK378 25 or 50 mg/kg po qd × 32 + cetuximab 20 mg/kg ip biwk × 5 or Ab A 25 mg/kg ip qod × 17 (FIGS. 8A, 8B)): significantly improved efficacy of LDK378
- efficacy of ceritinib with Antibody A and cetuximab combined (triple combination) (H2228 tumors; ceritinib + Antibody A + cetuximab): significantly improve the efficacy of ceritinib

Compound: Cc1cc(C(=O)Nc2nc3cccc(Cl)c3n2[C@@H]2CCCCN(C(=O)/C=C/CN(C)C)C2)ccn1 [compound A, (R,E)-N-(7-chloro-1-(1-(4-(dimethylamino)but-2-enoyl)azepan-3-yl)-1H-benzo[d]imidazol-2-yl)-2-methylisonicotinamide]
- cell growth, EGFR inhibitor in combination with ceritinib (MGH049 cells [3]; in combination with 0.5 μM ceritinib, 6 days, MGH049 (FIG. 3)): synergistically reduced cell growth
- cell growth, EGFR inhibitor in combination with ceritinib (MGH051 cells [4]; in combination with 0.5 μM ceritinib, 6 days, MGH051 (FIG. 4)): synergistically reduced cell growth

Compound: Cc1cc(Nc2ncc(Cl)c(Nc3ccccc3S(=O)(=O)C(C)C)n2)c(OC(C)C)cc1C1CCNCC1 [ceritinib, 5-chloro-N^2-(2-isopropoxy-5-methyl-4-(piperidin-4-yl)phenyl)-N^4-[2-(propane-2-sulfonyl)-phenyl]-pyrimidine-2,4-diamine]
- reversal of growth inhibitory effect of ceritinib by secreted ligands (cell viability) (NCI-H2228 cells): Ligands for EGFR and ERBB3 clearly overcame the inhibitory effect of ceritinib
- inhibition at 0.3 µM (MGH049 cells [6]): 20%
- inhibition at 0.3 µM (MGH051 cells [7]): 70%
- sensitivity of cell line to ceritinib alone (MGH049 cells [3]; MGH049, no ALK resistance mutations): resistant
- HER3 phosphorylation [8]: induction of HER3 phosphorylation; also recorded: up-regulation of HER3 phosphorylation
- AKT phosphorylation ([1]; ceritinib 8-day treatment): profound rebound in AKT phosphorylation
- AKT phosphorylation ([1]; ceritinib initial (4 hours) treatment): initial inhibition of AKT phosphorylation
- cell growth inhibition as single agent (colony formation) (MGH049 cells [9]): less effective
- cell growth inhibition as single agent (colony formation) (MGH051 cells [10]): partially effective

Compound: C#Cc1cccc(Nc2ncnc3cc(OCCOC)c(OCCOC)cc23)c1 [erlotinib, N-(3-ethynylphenyl)-6,7-bis-(2-methoxyethoxy)quinazolin-4-amine]
- rebound in AKT phosphorylation [1]: able to suppress the rebound in AKT phosphorylation
- ERK phosphorylation [2]: enhanced inhibition of ERK phosphorylation
- anti-proliferative effect in combination with ceritinib versus ceritinib alone (colony formation) (MGH049 cells [9]): greater anti-proliferative effect
- anti-proliferative effect in combination with ceritinib versus ceritinib alone (colony formation) (MGH049 cells [9]; listed as Erlotinib): enhances the anti-proliferation activity of ceritinib
- cell growth inhibition as single agent (colony formation) (MGH049 cells [9]): no effect on cell growth
- anti-proliferative effect in combination with ceritinib versus ceritinib alone (colony formation) (MGH051 cells [10]): greater anti-proliferative effect
- anti-proliferative effect in combination with ceritinib versus ceritinib alone (colony formation) (MGH051 cells [10]; listed as Erlotinib): enhances the anti-proliferation activity of ceritinib
- cell growth inhibition as single agent (colony formation) (MGH051 cells [10]): no effect on cell growth
